Laboratory results taken from patent US6602517B2, “Dietary supplements for treating inflammation-related diseases” (Metagenics, Inc., priority 1999, dated 2003).

Experiment: ORAC assay (inhibition of peroxyl-radical quenching of β-phycoerythrin fluorescence)
Format: biochemical
Conditions: for AUC/μg mean: pure samples (100% by weight); for ORAC units (U): pure samples, normalized to Trolox on a weight basis
From the text: Method: In order to determine the antioxidant capacity of the subject phytonutrients, the ORAC assay (Cao, G et al., Free Rad. Biol. Med. 14: 303-311[…]) was utilized. This simple procedure relies on the fact that peroxyl radicals will quench the fluorescence of β-phycoerythrin (β-PE) The addition of an antioxidant capable of scavenging these radicals is able to inhibit fluorescence quenching. Fluorescence is monitored as a function of time and the extent of quenching and its inhibition can be determined by calculating the area under the curve (AUC).
A typical reaction will contain 1.67×10^−8 M β-PE in phosphate buffer and 3×10^−3 M 2,2′-azobis(2-amidinopropane)dihydochloride (AAPH) as well as test material. The reaction is initiated by the addition of the peroxyl-radical generating reagent AAPH. […] The difference, or net protection, is equal to AUCsample−AUCblank, and represents the antioxidant capacity of the sample. […] Where one ORAC unit (U) is defined as the net protection provided by 1 nmol/ml Trolox (i.e., 1 μM). […] The final results are normalized to Trolox on a weight basis.
units=(AUC/μg)test/(AUC/μg)trolox.
To generate the data set forth in the present example, samples were prepared in acetonitrile, sometimes with the aid of sonication to facilitate dissolution. One to five μl of sample was added to each 3 ml cuvette, the reaction initiated with AAPH and fluorescence monitored until the quenching was complete. The predicted value for the mixtures was calculated by using the following equation: […]

Row | SMILES | AUC/μg mean [AUC/μg] | ORAC units (U)
1 | Cc1c(C)c2c(c(C)c1O)CCC(C)(C(=O)O)O2 (centres unmarked) [Trolox, reference compound] | 8.9 | 1.00
2 | COc1cc(/C=C/C(=O)CC(=O)/C=C/c2ccc(O)c(OC)c2)ccc1O [curcumin] | 15.93 | 
3 | O=c1c(O)c(-c2ccc(O)c(O)c2)oc2cc(O)cc(O)c12 [quercetin] | 14.45 | 1.62
